{"source": "paper PMC6458995", "about": "“MAP4K4 Inhibition Promotes Survival of Human Stem Cell-Derived Cardiomyocytes and Reduces Infarct Size In Vivo” (Cell Stem Cell, 2019)", "key": {"NUAK": {"system": "NUAK", "experiment": "HTRF Transcreener ADP kinase assay", "format": "biochemical, human"}, "vCor.4U cells [1]": {"system": "vCor.4U cells", "experiment": "Mitochondrial function (Seahorse XFe24, OCR and ECAR)", "format": "cell-based, human", "settings": "menadione 15 μM, 2 h", "procedure": "Mitochondrial function in hiPSC-CMs was determined using a Seahorse XFe24 Analyzer. vCor.4U cells (60,000 well^-1) were transferred to 0.1% gelatin-coated XF24 plates and maintained for 5 d, as described above. On day 6, DMX-5804 was added 45 min prior to challenge with menadione for 2 h. The medium was replaced 1 hr before the assay, using bicarbonate-free Seahorse assay medium (8.3 g L^-1 DMEM Base (Sigma-Aldrich), 10 mM glucose, 2 mM L-alanyl-L-glutamine dipeptide (Glutamax-1, GIBCO), 1 mM sodium pyruvate (GIBCO), pH 7.4). Cells were maintained at 37°C without supplemental CO2 starting 1 hr before the assay (IL10 incubator, VWR). For each state measured, three assay cycles were performed (4 min mixing, 2 min wait, and 2 min measurement periods, with readings every 15 s). The basal oxygen consumption rate (OCR) and extracellular acidification rate (ECAR) were determined, followed by sequential injection of 1 μM oligomycin A (Abcam) to inhibit ATP synthase, 0.5 μM […] (FCCP; Abcam) to uncouple oxidative phosphorylation, and 1 μM antimycin A/rotenone (Sigma, Abcam) to inhibit mitochondrial complex III and I. For each condition, 12 wells were tested, comprising 4 independent experiments."}, "vCor.4U cells [2]": {"system": "vCor.4U cells", "experiment": "Hypoxia-reoxygenation assay (CellTox Green)", "format": "cell-based, human", "settings": "3 cycles of 0.1% O2 over 8 h", "procedure": "vCor.4U cells were plated at 10,000 well^-1 in Cor.4U medium using black, clear-bottom 96-well plates pre-treated with Geltrex (GIBCO). After incubation overnight at 37°C, the media was replaced with phenol red-free DMEM (GIBCO) supplemented with 2% FCS, 2 mM […], 1 mM pyruvate and 10 mM D-galactose. DMX-5804 prepared in DMSO and CellTox Green (Promega) were added and incubated for 1 hr at 37°C. A breathable seal (AeraSeal) was added to the plate before transferring to a CLARIOstar plate reader (BMG Labtech) equipped with an atmospheric control unit. Oxygen concentration ramping was executed as follows (% O2, hr), at 37°C and 5% CO2. Fluorescence measurements (λex/em 483-14/530-30) were taken using the multiple scan and direct bottom features (5 positions read), and matrix averaging of each position every 20 min. Data were blank corrected, averaged (n = 2) and subjected to exponential smoothing with a damping factor of 0.3."}, "[3]": {"system": "S. typhimurium TA98 and TA100", "experiment": "Ames genotoxicity reverse mutation assay", "procedure": "Approximately 10^7 bacteria were exposed in triplicate to the test agent (six concentrations, 7.8-250 μg ml^-1), a vehicle control (vehicle) and a positive control for 90 min in low-histidine medium (sufficient for about 2 doublings.) The strains used were S. typhimurium TA98 (hisD3052, rfa, uvrB / pKM101; detects frameshift mutations) and TA100: hisG45, rfa, uvrB / pKM101; detects base-pair substitutions). The cultures were then diluted into indicator medium lacking histidine, dispensed into 384-well plates, and incubated for 48 hr at 37°C. The test was performed in the absence and presence of S9 metabolic activation, to identify pro-mutagens as well as directly acting mutagens. Only cells that underwent reversion grow, resulting in a color change. A two-fold increase over the vehicle control in the number of colonies indicates a positive response."}, "[4]": {"experiment": "Glutathione (GSH)-trapping", "format": "in vitro ADME"}, "Cerep Safety 44 panel": {"system": "Cerep Safety 44 panel", "experiment": "Cerep Safety 44 panel (SafetyScreen44)", "format": "binding", "settings": "except metallothionein 3"}, "endogenous MAP4K4": {"molecular_target": "T1, endogenous MAP4K4 (Homo sapiens, UniProt O95819)", "T1 construct": "endogenous in cells; host or cells: HEK293T", "T1 sequence (O95819 whole entry)": "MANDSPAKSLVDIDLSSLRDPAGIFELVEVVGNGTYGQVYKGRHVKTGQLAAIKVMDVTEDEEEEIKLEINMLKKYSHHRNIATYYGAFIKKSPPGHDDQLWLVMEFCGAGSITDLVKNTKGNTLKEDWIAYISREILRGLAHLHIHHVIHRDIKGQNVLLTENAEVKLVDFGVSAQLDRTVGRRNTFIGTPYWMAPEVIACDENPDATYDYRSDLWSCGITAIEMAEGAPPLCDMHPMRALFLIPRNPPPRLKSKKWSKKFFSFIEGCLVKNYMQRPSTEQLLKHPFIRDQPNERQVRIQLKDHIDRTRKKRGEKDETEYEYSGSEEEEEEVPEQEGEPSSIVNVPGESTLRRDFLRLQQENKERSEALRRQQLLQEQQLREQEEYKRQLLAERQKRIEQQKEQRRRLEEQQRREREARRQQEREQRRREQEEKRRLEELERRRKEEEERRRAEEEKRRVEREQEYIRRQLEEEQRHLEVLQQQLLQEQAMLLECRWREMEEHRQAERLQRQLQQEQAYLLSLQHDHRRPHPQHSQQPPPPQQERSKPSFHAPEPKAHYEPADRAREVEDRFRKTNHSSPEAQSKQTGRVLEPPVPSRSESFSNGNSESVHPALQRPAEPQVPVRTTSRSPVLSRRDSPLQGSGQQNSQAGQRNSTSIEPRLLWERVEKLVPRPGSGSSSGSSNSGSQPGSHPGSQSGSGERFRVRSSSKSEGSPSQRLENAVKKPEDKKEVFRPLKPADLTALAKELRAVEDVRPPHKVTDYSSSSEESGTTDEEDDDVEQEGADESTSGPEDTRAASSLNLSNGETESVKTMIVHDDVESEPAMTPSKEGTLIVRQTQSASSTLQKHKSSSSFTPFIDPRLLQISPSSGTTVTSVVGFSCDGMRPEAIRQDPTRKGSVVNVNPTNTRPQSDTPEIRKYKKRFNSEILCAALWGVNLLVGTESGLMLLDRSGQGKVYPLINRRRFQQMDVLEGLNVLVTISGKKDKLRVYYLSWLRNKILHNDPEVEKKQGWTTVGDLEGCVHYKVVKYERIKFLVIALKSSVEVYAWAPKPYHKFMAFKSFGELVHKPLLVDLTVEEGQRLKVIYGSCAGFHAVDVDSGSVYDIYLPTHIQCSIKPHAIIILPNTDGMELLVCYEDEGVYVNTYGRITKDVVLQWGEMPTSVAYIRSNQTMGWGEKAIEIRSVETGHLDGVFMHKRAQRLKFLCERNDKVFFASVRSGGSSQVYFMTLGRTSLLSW", "experiment": "In-cell MAP4K4 activity, immune complex kinase assay in HEK293T cells", "format": "cell-based", "settings": "HEK-293T, 1 h after treatment", "procedure": "MAP4K4 was precipitated using M2 antibody to the FLAG epitope, or antibody to endogenous MAP4K4, and protein G-Sepharose. Precipitates were washed twice in lysis buffer, twice with 500 mM LiCl, 100 mM Tris-HCl, pH 7.6, 0.1% Triton X-100, twice with kinase buffer (20 mM MOPS, pH 7.6, 2 mM EGTA, 10 mM MgCl2, 1 mM dithiothreitol, 0.1% Triton X-100, 1 mM Na3VO4), and were then mixed with 10 μg of myelin basic protein (Invitrogen) as substrate, 15 μM ATP, and 10 μCi [γ-^32P]ATP in […] of kinase buffer for 30 min at 30°C ([Yao et al., 1999]). His-MKK6 was used as the substrate for TAK1 ([Zhang et al., 2000]). Reaction mixtures were resolved by SDS-polyacrylamide gel electrophoresis, then were analyzed by western blotting and autoradiography."}, "iCell cardiomyocytes": {"system": "iCell cardiomyocytes", "experiment": "Human cardiac muscle cell death, DRAQ7 uptake (high-content)", "format": "cell-based", "settings": "H2O2, micromolar concentrations", "procedure": "iCell cardiomyocytes were thawed, transferred to Plating Medium, counted using a Vi-CELL XR cell viability analyzer (Beckman Coulter), and seeded into 24-well plates for RNA collection (60,000 cells well^-1; Greiner) or μClear half-area 96-well plates for gene silencing (10,000 cells well^-1; Greiner). Plates were coated with 10 μg ml^-1 collagen type I (BD Biosciences). Cells were cultured in iCell Cardiomyocytes Plating Medium for 2 d and in Maintenance Medium thereafter. For compound dose-response comparisons, the cells were deposited in Plating Medium at 10,000 cells well^-1 in 0.1% (w/v) gelatin-coated 384-well white Greiner plates and were cultured as above for 8 d before treatment. […]\nTo measure loss of membrane integrity, iCell hiPSC-CMs were co-stained for 15 min at 37°C with 0.3 μM DRAQ7 (Biostatus), a cell-impermeable dye, and with 0.8 μM Hoescht 33342 (Molecular Probes), as the membrane-permeable dye. Dyes were removed and the nuclear fluorescence scored (typically, 15,000-20,000 cells well^-1) using a Cellomics ArrayScan VTI High Content Screening platform. The line harbors a cardiomyocyte-specific Myh6-driven reporter gene for monomeric red fluorescent protein (RFP), enabling cell death to be scored exclusively in the myocyte population. Successfully transduced cells were identified on the basis of TurboGFP fluorescence. […]"}}, "data": [{"smiles": "COCCOc1ccc(-c2cn(-c3ccccc3)c3nc[nH]c(=O)c23)cc1", "note": "[DMX-5804, 5-[4-(2-methoxy-ethoxy)-phenyl]-7-phenyl-3,7-dihydro-pyrrolo[2,3-d]pyrimidin-4-one]", "values": [{"measurement": "Fold Selectivity", "setting": "NUAK; NUAK versus MAP4K4", "value": 47}, {"measurement": "DMX-5804 vs F1386-0303", "setting": "NUAK; ratio of fold selectivity, NUAK", "value": 2.35}, {"measurement": "extracellular acidification rate", "setting": "vCor.4U cells [1]; 10 μM", "value": "partially rescued"}, {"measurement": "improvement of residual maximum oxidative capacity", "setting": "vCor.4U cells [1]; 10 μM", "value": 5, "unit": "fold"}, {"measurement": "maximum oxidative capacity at lesser concentrations", "setting": "vCor.4U cells [1]; below 10 μM", "value": "No significant benefits"}, {"measurement": "protection of human cardiomyocyte survival, hypoxia-reoxygenation", "setting": "vCor.4U cells [2]", "value": "confirmed"}, {"measurement": "Ames test of mutagenic potential", "setting": "[3]", "value": "no off-target effect"}, {"measurement": "glutathione (GSH)-trapping", "setting": "[4]", "value": "no off-target effect"}, {"measurement": "Cerep Safety 44 panel", "setting": "Cerep Safety 44 panel", "value": "no off-target effect"}]}, {"smiles": "Oc1ncnc2c1c(-c1ccccc1)cn2-c1ccccc1", "note": "[F1386-0303, 5,7-diphenyl-7H-pyrrolo[2,3-d]pyrimidin-4-ol]", "values": [{"measurement": "inhibition at 10 µM", "setting": "endogenous MAP4K4", "value": 70, "unit": "%"}, {"measurement": "suppression of human cardiac muscle cell death (DRAQ7 uptake)", "setting": "iCell cardiomyocytes", "value": "highly protective"}]}]}
